The text below walks through data of patent publication US20110144125A1, “Anti-Arrhythmia Agents, Methods of Their Use, Methods of Their Identification and Kits Therefore” (THE UAB RESEARCH FOUNDATION, priority 2008, published 2011).

The test system of assay [1] is rat left atria. Kind of assay: Spontaneous tachycardic activity (STA) in isolated rat left atria exposed to 2-APB under increased calcium load. How it is done: Male Sprague-Dawley rats (325-400 g) were anesthetized with intra-peritoneal pentobarbital (0.1 g/kg). Their right and left atria were isolated, superfused at 30° C. in Krebs-Henseleit buffer, and nearly isometric forces of contraction were measured from these muscles (Wolkowicz et al., 2002). 2-APB was prepared as a 150 mM dimethyl sulfoxide stock.
(§1) Left atria (n=8 per group) were paced at 3 Hz and (i) titrated with 0 to 30 nM isoproterenol (Ahlquist, 1970) or (ii) exposed to 3 μM forskolin (Laurenza et al., 1980). Left atrial force and frequency of contraction, the time to peak tension and relaxation times were recorded after a 3-5 min exposure to forskolin or to any concentration of isoproterenol. The 3 Hz pacing stimulus was interrupted at the end of these protocols to measure SMEs.
Left atria (n=10 per group) were paced at 0.1 Hz and treated with (i) 20 μM 2-APB for 10 min, (ii) with 30 nM isoproterenol for 5 min followed by 20 μM 2-APB for 10 min, and (iii) with 3 μM forskolin for 5 min followed by 20 μM 2-APB for 10 min.
Left atrial contraction and relaxation times were recorded at these five times, the pacing stimulus was stopped and rates of SMA were recorded. To determine whether initial pacing rate affects left atrial response to 2-APB and isoproterenol, left atria (n=5-7 per group) were paced at 3 Hz and (i) remained untreated for 15 min, (ii) were treated with 20 μM 2-APB alone for 10 min, or (ii) were treated with 30 nM isoproterenol for 5 min followed by 20 μM 2-APB for 10 min. Atrial mechanical function was measured at these four times; the pacing stimulus then was stopped and rates of SMA were recorded.
(§2) Left atria (n=6 per group) were paced at 3 Hz, titrated with 0 to 300 nM (−)BayK 8644 ([…]-1,4-Dihydro-2,6-dimethyl-5-nitro-4-[2-(trifluormethyl)phenyl]-3-pyridinecarboxylic acid methyl ester; Franckowiak et al. 1985) or FPL-64176 ((2,5-Dimethyl-4-[2-(phenylmethyl)benzoyl]-111-pyrrole-3-carboxylic acid methyl ester; Zheng et al., 1991) and their mechanical function and rates of SMA were recorded after a 5 min exposure to any concentration of slow calcium channel activator.
Left atria (n=8 per group) were paced at 0.1 Hz, exposed to 300 nM BayK 8644 or FPL-64176 for 5 min followed by 20 μM 2-APB for 10 min. Atrial mechanical function was recorded at this time; the pacing stimulus then was stopped and rates of SMA were recorded.
(§3) To test whether ryanodine receptor calcium leak produces SMA, left atria (n=6 per group) were paced at 0.1 Hz, treated with 0 or 300 nM BayK 8644 for 5 min, and then exposed to 600 nM ryanodine (Sutko et al., 1997). Atrial mechanical function and rates of SMA were recorded 20 min after exposure to ryanodine.
Rates of SMA were measured 5 min later.
(§4) Left atria (n=7) were paced at 3 Hz, treated with 120 μM ouabain (Illanes and Marshall, 1964), and any change in mechanical function was recorded at a new steady state, ˜10 min later. These atria were exposed to 20 μM 2-APB and their mechanical function and rates of SMA were recorded 10 min later.
3 Hz-paced left atria (n=9 per group) were superfused (i) in Krebs-Henseleit alone or (ii) they were treated with 20 μM 2-APB for 10 min, (iii) with 300 nM BayK 8644 for 10 min and with 20 μM 2-APB for 10 min, or (iv) they were treated with 300 nM BayK 8644 and 20 μM 2-APB for 10 min, then with 70 μM zatebradine (3-[3-[[2-(3,4-Dimethoxyphenyl)ethyl]methylamino] propyl]-1,3,4,5-tetrahydro-7,8,-dimethoxy-2H-3-benzazepin-2-one hydrochloride) for 10 min (Baruscotti et al., 2005). Pacing was interrupted at these times and rates of SMA were recorded.

Assay [2] deals with rat left atria. Kind of assay: Left atrial force of contraction / post-rest potentiation maximum force. As for the experimental part:
Left atria were isolated from male Sprague-Dawley rats (325 to 400 g) under IP pentobarbital anesthesia (0.1 g/kg). Isolated left atria were superfused at 30° C. in Krebs-Henseleit (KH) buffer of the following mM composition: NaCl, 118; NaHCO3, 27; KCl, 4.8; MgSO4, 1.2; KH2PO4, 1.0; CaCl2, 1.8; and glucose, 11.1. Nearly isometric left atrial forces of contraction were measured as described.
The initial potentiated beat following prolonged rest (i.e., the PRP maximum force of contraction) reflects activator calcium available for SR release. The PRP response was used to obtain an indirect measure of left atrial SR calcium under our conditions.
Left atria (n=6) were superfused in KH, paced at 0.1 Hz, and subjected to PRP. Superfusion proceeded for another 35 min, and a second PRP was performed. These 2 forces were compared to assure the mechanical stability of our preparations.
One group (n=8) was superfused in KH, paced at 0.1 Hz, and their maximum force of contraction was measured. These atria were washed with KH containing 82 mM sodium, and a second PRP was performed 23 min later.
A second group (n=8) was paced at 0.1 Hz in KH and subjected to PRP. They were exposed to 22 μM 2-APB and, after the appearance of SMA, were washed with KH containing 22 μM 2-APB and 82 mM sodium. Superfusion continued for 23 min and a second PRP was performed.
Control 0.1 Hz paced atria (n=8) were subjected to PRP and exposed to 400 μM DIDS, and a second PRP was performed 23 min later.
A group of atria (n=8) were paced at 0.1 Hz in KH and subjected to PRP. They were exposed to 22 μM 2-APB, 400 μM DIDS was added to the superfusate after the appearance of SMA, and a second PRP was performed 23 min later.
as §1, §2, §3, §4
To test whether zatebradine affects left atrial force of contraction, two groups of left atria (n=9 per group) were paced at 3 Hz and treated with 300 nM BayK 8644. Five minutes later one group was incubated with six increasing concentrations of zatebradine (10-100 μM) for 3-5 min at each concentration, and forces of contraction were recorded. A second group was treated with BayK 8644 but not zatebradine, and forces of contraction were recorded at corresponding times.

The mark [3] stands for this setting: 20 μM 2-APB plus 30 nM isoproterenol, 3 μM forskolin, 300 nM BayK 8644, 300 nM FPL-64176 or 120 μM ouabain, absence of pacing, 30° C.
Where [4] appears, read: no 2-APB, 30 nM isoproterenol, 3 μM forskolin, 300 nM BayK 8644 or FPL-64176, 120 μM ouabain, 600 nM ryanodine.

“And” between values parts separate entries of the source, which are not always exact repeats. Equal values may be shown once. “Also recorded” adds a separate entry of the source. Read-outs that look alike come from different tables or passages of the source.

`COC(=O)c1c(C)[nH]c(C)c1C(=O)c1ccccc1Cc1ccccc1` [FPL-64176, 2,5-Dimethyl-4-[2-(phenylmethyl)benzoyl]-111-pyrrole-3-carboxylic acid methyl ester]: the “rate of STA (SMA frequency) in presence of 2-APB and calcium loading agent” value (“rate of STA … of 2-APB and calcium loading agent” below) in the assay on rat left atria [1] is on record as 222±9 contractions/min. Further, the “left atrial force of contraction with agent alone” value (“left atrial force of contraction” for short) in the assay on rat left atria [2] is “increase left atrial force of contraction”.
For the compound `NCCOB(c1ccccc1)c1ccccc1` [2-APB, 2-aminoethoxydiphenyl borate], in the assay with rat left atria [1], the “rate of STA post-washing” value stood at 0.7±0.4 contractions/min and the “rate of STA pre-washing” value amounted to 224±12 contractions/min. Besides, in the assay with rat left atria [2], the “maximum force of atrial contraction” value was “also decreased” and the “maximum force of left atrial contraction” value was “significantly decreased”.
On to `C[C@@H]1O[C@@H](O[C@H]2C[C@@H](O)[C@]3(CO)[C@H]4[C@H](O)C[C@]5(C)[C@@H](C6=CC(=O)OC6)CC[C@]5(O)[C@@H]4CC[C@]3(O)C2)[C@H](O)[C@H](O)[C@H]1O` [ouabain], for which, in the assay on rat left atria [1] (setting [3]), the “rate of STA … of 2-APB and calcium loading agent” value is on record as 202±5.6 contractions/min. Further, the “left atrial force of contraction” value in the assay with rat left atria [2] (setting [4]) was “doubles their force of contraction”.
As for ryanodine, the “STA after depletion of ryanodine-sensitive calcium stores” value with rat left atria [1] (BayK 8644 and 2-APB, then 600 nM ryanodine) is “persists; also recorded: does not terminate STA”. Besides, in the assay with rat left atria [2], the “left atrial force of contraction” value is “Time-dependent decreases in force of contraction”.
In the case of `COC(=O)C1=C(C)NC(C)=C([N+](=O)[O-])[C@H]1c1ccccc1C(F)(F)F` [BayK 8644, (45)-1,4-Dihydro-2,6-dimethyl-5-nitro-4-[2-(trifluormethyl)phenyl]-3-pyridinecarboxylic acid methyl ester], in the assay with rat left atria [1], the “rate of STA … of 2-APB and calcium loading agent” value amounted to 227±10 contractions/min. For the same compound, in the assay on rat left atria [2], the “left atrial force of contraction” value is listed as “increase left atrial force of contraction”.
As for `CC(C)NCC(O)c1ccc(O)c(O)c1` (centres unmarked) [isoproterenol], the “rate of STA … of 2-APB and calcium loading agent” value with rat left atria [1] (setting [3]) is ~230 contractions/min and 239±11 contractions/min and 225±3.6 contractions/min. For the same compound, the “left atrial force of contraction” value in the assay with rat left atria [2] (setting [4]) is “increase left atrial force of contraction”.
